Results published in article PMC3042124 (Organic & biomolecular chemistry, 2010).

Tests used:
Type in all cases: biochemical
[1] = molecular target: β1 subunit of the constitutive proteasome (Homo sapiens, UniProt P28072+Q99436)
[2] = molecular target: β2 subunit of the constitutive proteasome (Homo sapiens, UniProt P49720+Q99436)
[3] = molecular target: β5 subunit of the constitutive proteasome (Homo sapiens, UniProt P20618+P28074)

| SMILES | IC50 [1] [µM] | IC50 [2] [µM] | IC50 [3] [nM] |
| --- | --- | --- | --- |
| COc1ccc(C[C@H](NC(=O)Cc2ccc3ccccc3c2)C(=O)N[C@@H](Cc2ccccc2)C(=O)N[C@H](/C=C/S(=O)(=O)c2ccc(O)cc2)CC(C)C)cc1 [IIa, (Tyr(Me)-Phe-Leu-4-hydroxyphenyl-vinylsulfone)-2-(naphthalen-2-yl)-acetamide] | 32 ± 16 | 78 ± 23 | 70 ± 10 |
| COc1ccc(C[C@H](NC(=O)Cc2ccc3ccccc3c2)C(=O)N[C@@H](Cc2ccccc2)C(=O)N[C@H](/C=C/S(C)(=O)=O)CC(C)C)cc1 [IIb, (Tyr(Me)-Phe-Leu-methyl-vinylsulfone)-2-(naphthalen-2-yl)-acetamide] | > 100 | > 100 | 110 ± 20 |
| CCCC[C@H](NC(=O)[C@@H]1CCCN1C(=O)[C@H](C)NC(C)=O)C(=O)N[C@H](/C=C/S(=O)(=O)c1ccc(O)cc1)CC(C)C [Ia, Ac-Ala-Pro-Nle-Leu-4-hydroxyphenyl-vinylsulfone] | 4 ± 0.67 | > 100 | > 100000 |
| CCCC[C@H](NC(=O)[C@@H]1CCCN1C(=O)[C@H](C)NC(C)=O)C(=O)N[C@H](/C=C/S(C)(=O)=O)CC(C)C [Ib, Ac-Ala-Pro-NLe-Leu-methyl-vinylsulfone] | 7.8 ± 0.86 | > 100 | > 100000 |
